Reference: patent publication US20240001155A1, “REVERSAL OF CELLULAR SENESCENCE BY TREATMENT WITH LOW FREQUENCY ULTRASOUND” (Mechanobiologics, Inc., priority 2022, published 2024)

Key:
platelet = conditions: risk of causing thrombocytopenia; cited from earlier work
Vero cells [1] = assay: Proliferation (growth rate, fold change in cell number) of cells after senescence induction; format: cell-based, African monkey; conditions: senescence induced by the agent; 48 hours of incubation; control cells approximately eight-fold change; FIG. 1B
Experimental: (§1) Vero cells were treated with the stressors including 200 μM H2O2, 4 mM of sodium butyrate (SB) or 25 μM of bleomycin sulphate (BS) and incubated for 36-48 hours. After washing with PBS and then replacing growth medium with fresh medium, cells were incubated for four days to confirm the growth arrest of senescent cells. […] Four criteria were used to determine if cells were senescent; (1) cell cycle arrest by determining the growth rate, (2) Increase in cell spread area, (3) development of senescence associated secretory phonotype (SASP) in culture medium, and (4) beta-gal staining. Images of cells were captured with an Evos microscope at 10× magnification after treatment and 48 hours post treatment.
To measure growth by the increase in cell number, 15 random images were captured, then the average number of cells were determined, which was divided by the area of one frame to get the cell density (cells/cm^2). Then this seeding density was multiplied by the total area of the dish or well to obtain the total number of cells after ultrasound (US) treatment and after 48 hours of incubation. The total number of cells at 48 hours was divided by the total number of cells just after the treatment to determine the growth rate. A ratio was one would be an indication of no growth.

Vero cells [2] = assay: Cell spread area after senescence induction; format: cell-based, African monkey; conditions: senescence induced by the agent, compared to normal control cells; FIG. 1C
Experimental: as §1
Senescence was detected by the beta-galactosidase senescence staining kit as per manufacturer's protocol. Briefly, sub confluent senescent cells were stained by the SA-beta galactosidase (β-gal) staining solution and incubated overnight at 37° C. The β-gal-stained cells appeared blue and were senescent cells. The percentages of β-gal positive cells were determined by counting the number of blue cells and dividing by the total number of cells. Cell spread area was determined by capturing the mages of cells with a 10× objective using an Evos microscope. Then, ImageJ software was used to calculate spread area by manually encircling the cell periphery of each cell. A minimum of 150 cells was used for the analysis. To determine the SASP activity, the senescent cells were cultured for one to three days and then supernatant was collected from each dish. This supernatant was used to culture normal cells. Development of a senescence phenotype by the normal cells in supernatant medium confirmed that senescent cells were secreting SASP.

Sirtuin1 = assay: LFU rejuvenation of senescent cells in presence of Sirtuin1 inhibitor; format: cell-based, Human; conditions: HFF cells with ultrasound treatment in presence of drug; FIG. 7
Experimental: Passage 15-24 HFF cells were treated with ultrasound at the optimized frequency, power and duty cycle. Cell proliferation was determined by counting the number of cells at the time of seeding and 48 hours after ultrasound (US) treatment. […] In the case of P24 HFF cells, they were treated with ultrasound and incubated for 96 hours prior to trypsinization, reseeding and incubation for 48 hours. Proliferation and morphology were measured after 48 hours of incubation.
FIG. 7A is a schematic of resveratrol and EX-527 treatment, followed by ultrasound treatment and medium change. FIG. 7B is a bar graph comparing the fold change in cell number of untreated control HFF cells in presence of EX-527.
FIG. 7C is a bar graph comparing the fold change in cell number of treated P19 cells in the presence of drug. FIG. 7D is a set of images comparing the immunofluorescence staining of Sirt1 in untreated and US treated HFF cells. FIG. 7E is bar graph comparing the sirt1 expression by intensity ratio of sirt1 and DAPI. Results are shown as mean±S.D. **p value <0.02 and ‘non-significant’ p value >0.05.

Row | Compound | toxicity (platelet) | proliferation (fold change) (Vero cells [1]) | spread area (Vero cells [2]) | LFU rejuvenation of senescent cells (Sirtuin1)
1 | CC1(C)CCC(c2ccc(Cl)cc2)=C(CN2CCN(c3ccc(C(=O)NS(=O)(=O)c4ccc(N[C@H](CCN5CCOCC5)CSc5ccccc5)c(S(=O)(=O)C(F)(F)F)c4)cc3)CC2)C1 [ABT263] | dose-limiting platelet toxicity |  |  | 
2 | COc1cccc2c1C(=O)c1c(O)c3c(c(O)c1C2=O)C[C@@](O)(C(=O)CO)C[C@@H]3O[C@H]1C[C@H](N)[C@H](O)[C@H](C)O1 [Doxorubicin] |  | non proliferative | enlarged | 
3 | NC(=O)C1CCCc2c1[nH]c1ccc(Cl)cc21 (stereo not shown) [EX-527] |  |  |  | blocked
4 | OO [H2O2, hydrogen peroxide] |  | non proliferative | enlarged | 
5 | CCCC(=O)[O-].[Na+] [sodium butyrate] |  | non proliferative | enlarged | 
6 | Bleomycin Sulphate |  | non proliferative | enlarged | 
